Data published in publication PMC6560451, “Occurrence and Function of the Na^+-Translocating NADH:Quinone Oxidoreductase in Prevotella spp” (Microorganisms, 2019).

Biological target: T1, NqrB and NqrC subunits of P. bryantii B14 (Segatella baroniae, UniProt D8DWB9+D8DWC0)
T1 sequence (D8DWC0 1-385): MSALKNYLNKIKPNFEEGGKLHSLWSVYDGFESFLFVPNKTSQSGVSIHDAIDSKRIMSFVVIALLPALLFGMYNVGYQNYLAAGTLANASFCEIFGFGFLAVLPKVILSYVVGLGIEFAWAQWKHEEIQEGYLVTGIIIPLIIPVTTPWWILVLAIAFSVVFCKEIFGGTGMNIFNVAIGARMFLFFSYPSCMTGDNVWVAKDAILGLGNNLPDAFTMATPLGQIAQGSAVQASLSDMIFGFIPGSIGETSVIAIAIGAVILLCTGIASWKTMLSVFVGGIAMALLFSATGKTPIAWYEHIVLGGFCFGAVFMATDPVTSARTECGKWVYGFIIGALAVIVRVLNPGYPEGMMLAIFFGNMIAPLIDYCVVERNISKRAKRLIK
T1 sequence (D8DWB9 1-210): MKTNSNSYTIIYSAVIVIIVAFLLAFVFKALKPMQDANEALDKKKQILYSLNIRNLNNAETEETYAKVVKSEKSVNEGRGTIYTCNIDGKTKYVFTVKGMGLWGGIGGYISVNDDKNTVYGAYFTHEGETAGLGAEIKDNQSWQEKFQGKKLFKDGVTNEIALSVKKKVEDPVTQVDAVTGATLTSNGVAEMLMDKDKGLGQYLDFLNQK
Experiment: in-gel fluorescence after SDS-PAGE (excitation […] nm)
Format: biochemical

Structure (SMILES): Cc1cc2nc3c(=O)[nH]c(=O)nc-3n(C[C@H](O)[C@H](O)[C@H](O)COP(=O)(O)O)c2cc1C [flavin mononucleotide]
- in-gel fluorescence after SDS-PAGE (excitation 460 nm): verified by in-gel fluorescence detection of covalently bound FMN chromophores
